The values that follow come from patent publication US7105527B2, “N4-acylcytosine nucleosides for treatment of viral infections” (priority 2001, dated 2006).

A word on the IC50: it is the point on the concentration scale where inhibition reaches its midpoint. Usually EC90 stands for the concentration at which the effect reaches the 90% level.

What all share (format): cell-based
For one data set, the system named is HepG2 cells. Nature of the data set: Cytotoxicity assay in HepG2 cells. Particulars: Table 2, read-out: Cytotoxicity in different cells (IC50, μM) HepG2. The method, boiled down:
(§1)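 Compound toxicity measured in each cell type, with cycloheximide as positive cytotoxic control and solvent-exposed untreated cells as negative control. Cytotoxicity IC50 derived from concentration-response curves by the median effective method.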

Another data set relates to HIV-1LAl. Nature of the data set: Anti-HIV (in PBM cells) assay, reverse transcriptase readout. Conditions: Table 2, read-out: Anti-HIV-1 activity in different cells (EC90, μM) PBM. The method, boiled down: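 Human PBM cells infected with HIV-1; compounds diluted from DMSO stocks into growth medium, AZT as positive control. Virus in supernatant quantified day 6 post-infection by reverse transcriptase assay with (rA)n.(dT)12.18 template-primer; EC50 and EC90 from concentration-response curves by median effective method.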

The test system of another data set is human PBM cells. As to the kind of experiment: Cytotoxicity assay in PBM cells. Conditions: Table 2, read-out: Cytotoxicity in different cells (IC50, μM) PBM. The method, boiled down:
as §1

Data set [1] has as its system CEM (human lymphoblastoid) cells. Nature of the data set: Cytotoxicity assay in CEM cells. Conditions: Table 2, read-out: Cytotoxicity in different cells (IC50, μM) CEM. The method, boiled down:
as §1

The test system of the next data set is HIV-1NL4-3. Nature of the data set: Anti-HIV assay in MT-4 cells, consensus p24 assay. Particulars: Table 2, read-out: Anti-HIV-1 activity in different cells (EC90, μM) MT-4. The method, then: In a second antiviral testing system, the potency of the compounds was determined by measurement of viral RNA accumulation in HIV-1RF infected MT-2 cells (Bacheler L T, Paul M, Otto M J, Jadhav P K, Stone B A & Miller J A (1994) An assay for HIV RNIn infected cell lysates, and its use for rapid evaluation of antiviral efficacy. Antivir. Chem. Chemother. 5:111–121). The virus titer was established to determine the dilution producing 15 to 30 ng/RNA per well of HIV RNIn 3 days of infection. HIV-1 RNA was quantified using biotinylated capture and alkaline phosphatase-derivatized reporter oligonucleotides as described previously (Charvet A-S, Camplo M, Faury P, Graciet J C, Mourier N, Chermann J C & Kraus J L (1994) Inhibition of human immunodeficiency virus type 1 replication by phosphonoformate- and phosphonoacetate-2′,3′-dideoxy-3′-thiacytidine conjugates. J. Med. Chem. 37:2216–2223). In a third system, the effect of analogs on the replication of HIV-1NL4-3 was determined via the InterCompany Consortium consensus p24 assay as previously described (Jadhav P K & MacKay M F (1997) Cyclic urea amide: HIV-1 protease inhibitors with low nanomolar potency against both wild types and protease inhibitor resistant mutants of HIV. J. Med. Chem. 40:181–190). Recombinant viruses were recovered by transfecting the appropriate NL4-3 plasmid by lipofection. Virus stocks recovered 7 to 10 days post-transfection were titered on MT-4 cells to determine if the dilution produced 1,000 to 3,000 ng p24 in 4 days. This dilution was then used in drug susceptibility assays, where drug was added 24 h post infection of cells, and p24 quantified by ELISA 3 days later.

A further data set deals with Vero cells. As to the kind of experiment: Cytotoxicity assay in Vero cells. Particulars: Table 2, read-out: Cytotoxicity in different cells (IC50, μM) Vero. An outline of the steps:
as §1

Another data set relates to MT-2 cells. As to the kind of experiment: Cytotoxicity assay in MT-2 cells. Conditions: Table 2, read-out: Cytotoxicity in different cells (IC50, μM) MT-2. An outline of the steps:
as §1

A further data set relates to HIV-1RF. Nature of the data set: Anti-HIV (in MT-2 cells) assay, viral RNA accumulation. Conditions: Table 2; EC90; MT-2 cells; read-out: Anti-HIV-1 activity in different cells (EC90, μM) MT-2. An outline of the steps:
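HIV-1RF in MT-2 cells: viral RNA quantified after 3 days of infection by biotinylated capture/alkaline phosphatase reporter oligonucleotides. HIV-1NL4-3 recombinant virus in MT-4 cells: drug added 24 h post-infection, p24 measured by ELISA 3 days later.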

Structures are written as SMILES.

As to `O=C(Nc1nc(=O)n([C@H]2C=C[C@@H](CO)O2)cc1F)c1cccc(F)c1` [Compound 39, β-D-2′,3′-Didehydro-2′,3′-dideoxy-5-fluoro-N^4-(3-fluorobenzoyl)cytidine], the IC50 was over 100 µM with HepG2 cells; 45.3 µM in the data set with human PBM cells; 4.2 µM in data set [1]; over 100 µM in the data set with Vero cells; over 50 µM in the data set on MT-2 cells. Besides, the EC90 with HIV-1LAl came out at 7.82 µM; with HIV-1NL4-3 it was 3.1 µM; in the data set with HIV-1RF, 1 µM.
For the compound `CCCC(=O)Nc1nc(=O)n([C@H]2C=C[C@@H](CO)O2)cc1F` [Compound 60, β-D-N^4-Butyryl-2′,3′-didehydro-2′,3′-dideoxy-5-fluorocytidine], the half-inhibitory concentration (IC50) with HepG2 cells is over 100 µM; in the data set on human PBM cells, 52.4 µM; in data set [1], 12.2 µM; in the data set with Vero cells, over 100 µM; with MT-2 cells, over 50 µM. Further, the EC90 in the data set with HIV-1LAl was 1.89 µM; in the data set with HIV-1NL4-3 it was 3.1 µM; in the data set with HIV-1RF, 2.4 µM.
